Experimental data: article PMC4520234 (Journal of medicinal chemistry, 2015)
One block for each molecule: values may come before it.

Tests used:
mice [1] = assay: In vivo tolerability in mice, intraperitoneal injection
mice [2] = details: cited from earlier work
[3] = dogs, cited from earlier work
[4] = Zinc binding by EGTA titration; details: EGTA 7.3 mM, PAC-1 derivative 100 μM, Zn(OTf)2 titration, ex. 410 nm, em. 475 nm
[5] = Pharmacokinetics in mice, 25 mg/kg IV injection or oral gavage; format: in vivo, mouse; details: 25 mg/kg IV (n = 2)
[6] = i.p. injection 200 mg/kg, graded mild, moderate, severe, or lethal

Structure (SMILES): C=CCc1cccc(/C=N/NC(=O)CN2CCN(C(=O)c3ccc(F)cc3)CC2)c1O [Compound 7, N′-[2-Hydroxy-3-(2-propenyl)phenylmethylene]-4-(4-fluorobenzoyl)-1-piperazineacetohydrazide]
mouse toxicity IP 200 mg/kg (mice [1]; [6]): moderate

Structure (SMILES): O=C(CN1CCN(C(=O)c2ccc(C(F)(F)F)cc2)CC1)N/N=C/c1cc(F)ccc1O [Compound 27, N′-(5-Fluoro-2-hydroxyphenylmethylene)-4-[4-(trifluoromethyl)benzoyl]-1-piperazineacetohydrazide]
mouse toxicity IP 200 mg/kg (mice [1]; [6]): moderate

Structure (SMILES): C=CCc1cc(F)cc(/C=N/NC(=O)CN2CCN(C(=O)c3ccccc3)CC2)c1O [Compound 30, N′-[5-Fluoro-2-hydroxy-3-(2-propenyl)phenylmethylene]-4-benzoyl-1-piperazineacetohydrazide]
mouse toxicity IP 200 mg/kg (mice [1]; [6]): moderate

Structure (SMILES): C=CCc1cc(F)cc(/C=N/NC(=O)CN2CCN(C(=O)c3ccc(F)cc3)CC2)c1O [Compound 34, N′-[5-Fluoro-2-hydroxy-3-(2-propenyl)phenylmethylene]-4-(4-fluorobenzoyl)-1-piperazineacetohydrazide]
mouse toxicity IP 200 mg/kg (mice [1]; [6]): severe

Structure (SMILES): CCCc1cc(F)cc(/C=N/NC(=O)CN2CCN(C(=O)c3ccc(F)cc3)CC2)c1O [Compound 43, N′-(5-Fluoro-2-hydroxy-3-propylphenylmethylene)-4-(4-fluorobenzoyl)-1-piperazineacetohydrazide]
mouse toxicity IP 200 mg/kg (mice [1]; [6]): severe

Structure (SMILES): C=CCc1cccc(/C=N/NC(=O)CN2CCN(Cc3ccccc3)CC2)c1O [PAC-1, Procaspase-Activating Compound 1]
mouse toxicity IP 200 mg/kg (mice [1]; mouse, in vivo, ip, 200 mg/kg): severe
serum concentration achieved with few adverse events (mice [2]): approximately 10 μM
maximum tolerated dose (mice [2]; intraperitoneal injection): 200 mg/kg
in vivo half-life ([3]; IV administration): 2.1 ± 0.3 h
serum concentration achieved with few adverse events [3]: approximately 10 μM

Zn^2+ Kd [4]: does not bind zinc
Structure (SMILES): O=C(CN1CCN(Cc2ccccc2)CC1)N/N=C/c1ccccc1 [PAC-1a]

time post-treatment up to which compound is detectable in serum [5]: 6 h
Structure (SMILES): C=CCc1cccc(/C=N/NC(=O)CN2CCN(Cc3ccc(S(N)(=O)=O)cc3)CC2)c1O [S-PAC-1]
